Experimental data taken from patent US20250122225A1, “MASP-2 INHIBITORS AND METHODS OF USE” (Omeros Corporation, priority 2023, published 2025).
Counter-ions that a name gives are not always drawn.

Tests used:
human α-thrombin = biological target: T1, human α-thrombin (Homo sapiens, UniProt P00734); experiment: Enzymatic assay for thrombin (fluorogenic peptide substrate Boc-VPR-AMC); type: biochemical
T1 construct: enzyme (human α-thrombin (BioPharm® Lab.)) in assay buffer; purchased BioPharm® Lab
Procedure, shortened: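 Assay conditions kept the reaction linear in time, enzyme and substrate, so IC50 approximated Ki apart from tight- or slow-binding cases. Boc-VPR-AMC cleavage by human α-thrombin proceeded 20 min at room temperature in Hepes pH 7.4/NaCl/Tween 20 buffer, then was acid-quenched and read by fluorescence.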

MASP-2 (CCP1-CCP2-SP) = biological target: T2, MASP-2 (CCP1-CCP2-SP) (Homo sapiens, UniProt O00187); experiment: Enzymatic assay for MASP-2 inhibitory activity (fluorogenic substrate); type: biochemical
T2 construct: 15 μL of Enzyme MASP-2 (CCP1-CCP2-SP) in Assay Buffer
T2 sequence (O00187 445-686 limits assumed): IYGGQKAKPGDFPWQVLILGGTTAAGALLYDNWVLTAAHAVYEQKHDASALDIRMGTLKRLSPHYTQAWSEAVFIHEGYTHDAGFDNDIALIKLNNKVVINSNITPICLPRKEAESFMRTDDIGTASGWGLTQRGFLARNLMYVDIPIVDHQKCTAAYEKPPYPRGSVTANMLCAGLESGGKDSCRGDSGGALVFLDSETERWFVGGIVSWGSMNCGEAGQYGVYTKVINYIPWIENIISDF
T2 sequence (O00187 287-444 partner limits assumed): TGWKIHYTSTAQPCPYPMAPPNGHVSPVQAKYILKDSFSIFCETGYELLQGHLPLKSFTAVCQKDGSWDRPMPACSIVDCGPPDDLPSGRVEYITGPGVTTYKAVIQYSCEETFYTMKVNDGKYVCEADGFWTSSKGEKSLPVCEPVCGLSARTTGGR
Procedure, shortened: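 Fluorescence was normalized between no-enzyme and DMSO-only controls to derive % activity, with IC50 taken as equivalent to Ki except for tight-binding inhibitors. Reactions ran 20 min at room temperature in HEPES pH 7.4/NaCl/Tween 20 buffer, using the C2-derived fluorogenic substrate, before acetic acid stop.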

SMILES | Ki (human α-thrombin) | Ki (MASP-2 (CCP1-CCP2-SP))
O=C(NCc1cc2cnccc2[nH]1)[C@@H]1CC2(CC=CC2)c2c(Cl)nc(NCc3ccccc3)c(=O)n21 [Compound 233, (S)—N-((1H-pyrrolo[3,2-c]pyridin-2-yl)methyl)-3′-(benzylamino)-1′-chloro-4′-oxo-6′,7′-dihydro-4′H-spiro[cyclopentane-1,8′-pyrrolo[1,2-a]pyrazin]-3-ene-6′-carboxamide trifluoroacetate] | > 25 µM | < 0.5 µM
Cc1ccccc1[C@H](C)Nc1ncc2n(c1=O)[C@H](C(=O)NCc1cc3cnccc3[nH]1)CC2 [Compound 83, (S)-N-((1H-pyrrolo[3,2-c]pyridin-2-yl)methyl)-4-oxo-3-(((S)-1-(o-tolyl)ethyl)amino)-4,6,7,8-tetrahydropyrrolo[1,2-a]pyrazine-6-carboxamide] | 2.5 to 10 µM | < 0.5 µM
Cc1nc(N)ccc1CNC(=O)[C@@H]1CCc2cnc(NCC3CCOCC3)c(=O)n21 [Compound 116, (S)—N-((6-amino-2-methylpyridin-3-yl)methyl)-4-oxo-3-(((tetrahydro-2H-pyran-4-yl)methyl)amino)-4,6,7,8-tetrahydropyrrolo[1,2-a]pyrazine-6-carboxamide] | 0.5 to 2.5 µM | < 0.5 µM
Cc1ccccc1CNc1ncc2n(c1=O)[C@H](C(=O)N[C@H](C)c1ccc(N)nc1)CC2 [Compound 202, (S)-N-((R)-1-(6-aminopyridin-3-yl)ethyl)-3-((2-methylbenzyl)amino)-4-oxo-4,6,7,8-tetrahydropyrrolo[1,2-a]pyrazine-6-carboxamide] | 10 to 25 µM | < 0.5 µM
Cc1cc(C)cc(CNc2ncc3n(c2=O)[C@H](C(=O)NCc2cc4cnc(C)cc4[nH]2)CC32CC2)c1 [Compound 124, (S)-3′-((3,5-dimethylbenzyl)amino)-N-((6-methyl-1H-pyrrolo[3,2-c]pyridin-2-yl)methyl)-4′-oxo-6′,7′-dihydro-4′H-spiro[cyclopropane-1,8′-pyrrolo[1,2-a]pyrazine]-6′-carboxamide trifluoroacetate] | > 25 µM | < 0.5 µM
Cc1nc(N)ccc1CNC(=O)[C@@H]1CCc2c(Cl)nc(NCC3COC3)c(=O)n21 [Compound 146, (S)-N-((6-amino-2-methylpyridin-3-yl)methyl)-1-chloro-3-((oxetan-3-ylmethyl)amino)-4-oxo-4,6,7,8-tetrahydropyrrolo[1,2-a]pyrazine-6-carboxamide] | 10 to 25 µM | 0.5 to 2.5 µM
C[C@@H]1C[C@@H](C(=O)NCc2cc3cnccc3[nH]2)n2c1cnc(NCc1ccccc1)c2=O [Compound 227, trifluoroacetate] | 2.5 to 10 µM | < 0.5 µM
O=C(NCc1cc2cnccc2[nH]1)[C@@H]1CC2(CC2)c2c(Cl)nc(NCc3ccccc3)c(=O)n21 [Compound 128, (S)—N-((1H-pyrrolo[3,2-c]pyridin-2-yl)methyl)-3′-(benzylamino)-1′-chloro-4′-oxo-6′,7′-dihydro-4′H-spiro[cyclopropane-1,8′-pyrrolo[1,2-a]pyrazine]-6′-carboxamide] | 2.5 to 10 µM | < 0.5 µM
O=C(NCc1cc2cnccc2[nH]1)[C@@H]1CC2(CCCC2)c2c(Cl)nc(NCc3ccccc3)c(=O)n21 [Compound 231, (S)—N-((1H-pyrrolo[3,2-c]pyridin-2-yl)methyl)-3′-(benzylamino)-1′-chloro-4′-oxo-6′,7′-dihydro-4′H-spiro[cyclopentane-1,8′-pyrrolo[1,2-a]pyrazine]-6′-carboxamide trifluoroacetate] | 10 to 25 µM | < 0.5 µM
Cc1nc(N)ccc1CNC(=O)[C@@H]1CCc2c(Cl)nc(NCC3CCOC3)c(=O)n21 (stereo partly drawn) [Compound 118, (6S)—N-((6-amino-2-methylpyridin-3-yl)methyl)-1-chloro-4-oxo-3-(((tetrahydrofuran-3-yl)methyl)amino)-4,6,7,8-tetrahydropyrrolo[1,2-a]pyrazine-6-carboxamide] | 10 to 25 µM | < 0.5 µM
O=C(NCc1cc2c(s1)CNC2)[C@@H]1CCc2cnc(NC3CCc4ccccc43)c(=O)n21 (stereo partly shown) [Compound 235] | < 0.5 µM | < 0.5 µM
O=C(NCc1cc2cnccc2[nH]1)[C@@H]1CCc2c(Cl)nc(NC3(c4ccccc4)CC3)c(=O)n21 [Compound 106, (S)-N-((1H-pyrrolo[3,2-c]pyridin-2-yl)methyl)-1-chloro-4-oxo-3-((1-phenylcyclopropyl)amino)-4,6,7,8-tetrahydropyrrolo[1,2-a]pyrazine-6-carboxamide] | 2.5 to 10 µM | < 0.5 µM
Cc1cc(C)cc(CNc2ncc3n(c2=O)[C@H](C(=O)NCc2cccc4[nH]ncc24)CC3)c1 [Compound 282, (S)-N-((1H-indazol-4-yl)methyl)-3-((3,5-dimethylbenzyl)amino)-4-oxo-4,6,7,8-tetrahydropyrrolo[1,2-a]pyrazine-6-carboxamide] | 2.5 to 10 µM | 0.5 to 2.5 µM
C[C@@H](NC(=O)[C@@H]1CCc2cnc(NCc3cccc(-c4ccccc4)c3)c(=O)n21)c1ccc(N)nc1 [Compound 201, (S)-3-(([1,1′-biphenyl]-3-ylmethyl)amino)-N-((R)-1-(6-aminopyridin-3-yl)ethyl)-4-oxo-4,6,7,8-tetrahydropyrrolo[1,2-a]pyrazine-6-carboxamide] | > 25 µM | < 0.5 µM
Cc1ccc(F)c(CNc2nc(Cl)c3n(c2=O)[C@H](C(=O)NCc2ccc(N)nc2C)CC3)c1 [Compound 20, (S)-N-((6-amino-2-methylpyridin-3-yl)methyl)-1-chloro-3-((2-fluoro-5-methylbenzyl)amino)-4-oxo-4,6,7,8-tetrahydropyrrolo[1,2-a]pyrazine-6-carboxamide] | 0.5 to 2.5 µM | < 0.5 µM
O=C(NCc1cc2c(s1)CNC2)[C@@H]1CCc2cnc(NCC3(c4ccccc4)CCC3)c(=O)n21 [Compound 271, (S)-N-((5,6-dihydro-4H-thieno[2,3-c]pyrrol-2-yl)methyl)-4-oxo-3-(((1-phenylcyclobutyl)methyl)amino)-4,6,7,8-tetrahydropyrrolo[1,2-a]pyrazine-6-carboxamide trifluoroacetate] | < 0.5 µM | < 0.5 µM
Cc1ccc(F)c(CNc2nc(C#N)c3n(c2=O)[C@H](C(=O)NCc2ccc(N)nc2C)CC3)c1 [Compound 223, trifluoroacetate] | 2.5 to 10 µM | < 0.5 µM
COc1cc(C)cc(CNc2ncc3n(c2=O)[C@H](C(=O)NCc2cc4cnc(C)cc4[nH]2)C[C@@H]3Cc2ccccc2)c1 [Compound 137, (6S,8S)-8-benzyl-3-((3-methoxy-5-methylbenzyl)amino)-N-((6-methyl-1H-pyrrolo[3,2-c]pyridin-2-yl)methyl)-4-oxo-4,6,7,8-tetrahydropyrrolo[1,2-a]pyrazine-6-carboxamide] | > 25 µM | < 0.5 µM
C[C@H]1C[C@@H](C(=O)NCc2cc3cnccc3[nH]2)n2c1cnc(NCc1ccccc1)c2=O [Compound 152, (6S,8S)-N-((1H-pyrrolo[3,2-c]pyridin-2-yl)methyl)-3-(benzylamino)-8-methyl-4-oxo-4,6,7,8-tetrahydropyrrolo[1,2-a]pyrazine-6-carboxamide] | 2.5 to 10 µM | < 0.5 µM
Cc1ccc(C)c(CNc2ncc3n(c2=O)[C@H](C(=O)N[C@H](C)c2ccc(N)nc2C)CC3)c1 [Compound 237] | 0.5 to 2.5 µM | < 0.5 µM
Cc1cc(F)cc(CNc2ncc3n(c2=O)[C@H](C(=O)N[C@H](C)c2ccc(N)nc2)CC3)c1 [Compound 191, (S)-N-((R)-1-(6-aminopyridin-3-yl)ethyl)-3-((3-fluoro-5-methylbenzyl)amino)-4-oxo-4,6,7,8-tetrahydropyrrolo[1,2-a]pyrazine-6-carboxamide trifluoroacetate] | 2.5 to 10 µM | < 0.5 µM
Cc1ccccc1[C@@H](C)Nc1ncc2n(c1=O)[C@H](C(=O)NCc1ccc(N)nc1C)CC2 [Compound 82, (S)-N-((6-amino-2-methylpyridin-3-yl)methyl)-4-oxo-3-(((R)-1-(o-tolyl)ethyl)amino)-4,6,7,8-tetrahydropyrrolo[1,2-a]pyrazine-6-carboxamide] | < 0.5 µM | < 0.5 µM
O=C(NCc1cc2cnccc2[nH]1)[C@@H]1CCc2c(Cl)nc(NCC3(c4ccccc4)COC3)c(=O)n21 [Compound 251] | 0.5 to 2.5 µM | < 0.5 µM
O=C(NCc1cc2c(s1)CNC2)[C@@H]1CCc2cnc(N[C@@H](c3ccccc3)C3CCCC3)c(=O)n21 [Compound 279, (S)-3-(((R)-cyclopentyl(phenyl)methyl)amino)-N-((5,6-dihydro-4H-thieno[2,3-c]pyrrol-2-yl)methyl)-4-oxo-4,6,7,8-tetrahydropyrrolo[1,2-a]pyrazine-6-carboxamide] | < 0.5 µM | < 0.5 µM
Cc1ccc(C)c(CNc2nc(Cl)c3n(c2=O)[C@H](C(=O)NCc2cc4cnccc4[nH]2)CC3)c1 [Compound 11, (S)-N-((1H-pyrrolo[3,2-c]pyridin-2-yl)methyl)-1-chloro-3-((2,5-dimethylbenzyl)amino)-4-oxo-4,6,7,8-tetrahydropyrrolo[1,2-a]pyrazine-6-carboxamide] | 10 to 25 µM | < 0.5 µM
Cc1cc(F)cc(CNc2nc(Cl)c3n(c2=O)[C@H](C(=O)NCc2cnc4ccccn24)CC3)c1 [Compound 165, (S)-1-chloro-3-((3-fluoro-5-methylbenzyl)amino)-N-(imidazo[1,2-a]pyridin-3-ylmethyl)-4-oxo-4,6,7,8-tetrahydropyrrolo[1,2-a]pyrazine-6-carboxamide trifluoroacetate] | > 25 µM | 10 to 25 µM
